Assays:
[1] = tested on: λ phage DNA; experiment: Zymo Quick-DNA/RNA MagBead extraction with air dry replaced by TPW, LAMP; assay type: biochemical; details: 10× dilution of eluent into LAMP
Description: LAMP reactions contained the following concentrations of reagents: 1× Isothermal Amplification Buffer (20 mM Tris-HCl pH 8.8, 10 mM (NH4)2SO4, 50 mM KCl, 5 mM MgSO4, 0.1% Tween-20, B0537S, NEB, Ipswich, Mass., USA), an additional 2 mM MgSO4 (B1003S, NEB), 1.4 mM deoxynucleotide mix (N0447L or N0446S, NEB), […] Invitrogen Syto-9 (S34854, Thermo Fisher Scientific), […] Invitrogen bovine serum albumin (15561020, Thermo Fisher Scientific), 320 U/mL WarmStart Bst 2.0 (M0538L, NEB), and were supplemented with nuclease-free water (not DEPC-Treated, 4387936, Thermo Fisher Scientific) up to 10 μL. LAMP primers (Integrated DNA Technologies (IDT), Coralville, Iowa, USA) were designed, ordered, and added at NEB's recommended concentrations of […] FIP/BIP, 0.2μM F3/B3, and […] LoopF/B.
Each 96-well plate was sealed and briefly spun. Heating and real-time imaging were performed on the Bio-Rad CFX-96 Touch Real-Time PCR Detection System (1855195, Bio-Rad). Each 96-well plate was cooled to 12° C. for 2 min, held at 68° C. for 47 min with 35-second fluorescence read intervals, and a melt-curve analysis was performed. For the E. coli DNA dilution experiment, the 68° C. step was held for 105 min. Time-to-positive (TTP) was determined when the software's automated baseline corrected fluorescence reached 1000 RFU.
The Zymo Quick-DNA/RNA Viral MagBead (R2140) was tested. […]

[2] = tested on: λ phage DNA; experiment: Zymo Quick-DNA/RNA MagBead extraction with air dry replaced by TPW, qPCR; assay type: biochemical; details: 10× dilution of eluent into qPCR
Description: qPCR reactions contained 1× Bio-Rad SsoFast Supermix (1725201, Bio-Rad), PCR primers (IDT) at […] each, and were supplemented with nuclease-free water up to 10 μL. Each 96-well plate (thin-wall clear well, HSP9641, Bio-Rad) was sealed (Microseal B, MSB1001, Bio-Rad) and briefly spun in a Mini Plate Spinner Centrifuge (14-100-141, Fisher Scientific). Heating and real-time imaging were performed on the Bio-Rad CFX-96 Touch Real-Time PCR Detection System by heating to 95° C. for 5 min, cycling 40 times between 95° C. for 15 s, 60° C. for 15 s, and 72° C. for 20 s, and taking a melt-curve analysis. For the E. coli DNA dilution experiment, qPCR was run for 60 cycles. Fluorescence readings were taken at the end of each extension step. Quantification cycle (Cq) was determined when the software's automated baseline corrected fluorescence reached 200 RFU.
The Zymo Quick-DNA/RNA Viral MagBead (R2140) was tested. For the Zymo MagBead kit, 200 μL sample was mixed with 200 μL Zymo 2×DNA/RNA Shield, 4 μL Proteinase K, and 800 μL Zymo Viral DNA/RNA Buffer. 1204 μL was added to each tube, mixed with 20 μL MagBinding Beads, and placed on an UltraRocker Rocking Platform (1660709EDU, Bio-Rad, Hercules, Calif., USA) for 10 min at max speed. Tubes were transferred to a DynaMag-2 magnetic rack (12321D, Thermo Fisher Scientific) and manufacturer instructions was followed for the remainder of the protocol. […]

What does the source list for `CCCCCCCCCCCO` [1-undecanol]?
TTP improvement [1]: 0.7 min; cycle delay vs manufacturer protocol [2]: 1.1 cycle

From US11866695B2, “Methods and systems and related compositions for mixtures separation with a solid matrix” (CALIFORNIA INSTITUTE OF TECHNOLOGY, priority 2019, dated 2024)
